Assay results: patent US8501238B2, “Anti-infective agents and uses thereof” (priority 2007, dated 2013)
Where two headings read alike, the source gives them in different places.

Assays:
[1] = target: T1, HCV polymerase 1B (Δ21 NS5B) (Hepatitis C virus genotype 1b, UniProt P26663); test: biochemical
T1 construct: 20 to 50nM Δ21 NS5B
Method: (§1) Either two-fold serial dilutions (fractional inhibition assay) or a narrower range of dilutions spanning the IC50 of the inhibitor (tight binding assay) of the inhibitors were incubated with 20mM Tris-Cl pH 7.4, 2 mM MnCl2, 1 mM dithiothreitol, 1 mM ethylene diamine tetraacetic acid (EDTA), 60 to 125μM GTP and 20 to 50nM Δ21 NS5B (HCV Strain 1B (BK, Genbank accession number M58335, or H77, Genbank accession number AF011751)) for 15min at room temperature. The reaction was initiated by the addition of 20μM CTP, 20μM ATP, 1μM ^3H-UTP (10mCi/umol), 5nM template RNA and 0.1 U/μl RNase inhibitor (RNasin, Promega), and allowed to proceed for 2 to 4h at room temperature. Reaction volume was 50μl. The reaction was terminated by the addition of 1 volume of 4mM spermine in 10mM Tris-Cl pH 8.0, 1mM EDTA. After incubation for at least 15 min at room temperature, the precipitated RNA was captured by filtering through a GF/B filter (Millipore) in a 96 well format. The filter plate was washed three times with 200μl each of 2mM spermine, 10mM Tris-Cl pH 8.0, lmM EDTA, and 2 times with ethanol. After air-drying, 30μl of Microscint 20 scintillation cocktail (Packard) was added to each well, and the retained cpm were determined by scintillation counting. […] Retained cpm were plotted vs. inhibitor concentration and fit to equation 1 using non-linear regression (ref. 1) to obtain the IC50 values: Retained cpm=A[sqrt{(IC50+It−Et)^2+4*IC50*Et}−([…])]
Ref. Morrison, J. F. and S. R. Stone. 1985. Approaches to the study and analysis of the inhibition of enzymes by slow- and tight-binding inhibitors. Comments Mol. Cell. Biophys. 2: 347-368.
(§2) The sequence of the template RNA used was: 5′-[…]-3′

[2] = test system: genotype 1b-Con1 subgenomic replicon cell line; test: microbe, parasite or virus in culture; format: cell-based, HCV; conditions: Hepatitis C virus, 72 h, read-out: EC50 1b
[3] = target: T2, HCV polymerase 1A (Δ21 NS5B) (Hepatitis C virus genotype 1a, UniProt P27958); test: HCV Polymerase Inhibition Assay (1a); format: biochemical
T2 construct: 20 to 50nM Δ21 NS5B
Method: as §1, with “The” for “Either two-fold serial dilutions (fractional inhibition assay) or a narrower range of dilutions spanning the IC50 of the inhibitor (tight binding assay) of the inhibitors were incubated with 20mM Tris-Cl pH 7.4, 2 mM MnCl2, 1 mM dithiothreitol, 1 mM ethylene diamine tetraacetic acid (EDTA), 60 to 125μM GTP and 20 to 50nM Δ21 NS5B (HCV Strain 1B (BK, Genbank accession number M58335, or H77, Genbank accession number AF011751)) for 15min at room temperature. The”
Ref. Morrison, J. F. and S. R. Stone. […] Approaches to the study and analysis of the inhibition of enzymes by slow- and tight-binding inhibitors. Comments Mol. Cell. Biophys.
as §2

[4] = test system: genotype 1a-H77 subgenomic replicon cell line; test: microbe, parasite or virus in culture; format: cell-based, HCV; conditions: Hepatitis C virus, 72 h, read-out: EC50 1a

T1 sequence (P26663 2420-2989, stated change not applied): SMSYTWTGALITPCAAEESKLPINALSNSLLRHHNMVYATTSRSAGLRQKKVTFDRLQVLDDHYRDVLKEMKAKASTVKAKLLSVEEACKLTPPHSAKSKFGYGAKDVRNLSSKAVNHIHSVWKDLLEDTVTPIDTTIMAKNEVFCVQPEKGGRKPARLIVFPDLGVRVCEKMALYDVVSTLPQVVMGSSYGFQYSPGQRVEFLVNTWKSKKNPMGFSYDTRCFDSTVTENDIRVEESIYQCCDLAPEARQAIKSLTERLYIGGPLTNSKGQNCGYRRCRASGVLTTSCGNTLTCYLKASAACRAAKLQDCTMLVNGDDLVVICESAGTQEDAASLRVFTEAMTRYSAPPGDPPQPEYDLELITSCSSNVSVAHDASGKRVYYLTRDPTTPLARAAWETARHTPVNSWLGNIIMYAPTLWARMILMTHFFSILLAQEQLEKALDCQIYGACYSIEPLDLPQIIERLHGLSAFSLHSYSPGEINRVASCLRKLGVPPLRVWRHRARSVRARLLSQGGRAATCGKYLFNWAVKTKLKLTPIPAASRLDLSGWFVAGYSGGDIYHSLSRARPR
T2 sequence (P27958 2421-2990, stated change not applied): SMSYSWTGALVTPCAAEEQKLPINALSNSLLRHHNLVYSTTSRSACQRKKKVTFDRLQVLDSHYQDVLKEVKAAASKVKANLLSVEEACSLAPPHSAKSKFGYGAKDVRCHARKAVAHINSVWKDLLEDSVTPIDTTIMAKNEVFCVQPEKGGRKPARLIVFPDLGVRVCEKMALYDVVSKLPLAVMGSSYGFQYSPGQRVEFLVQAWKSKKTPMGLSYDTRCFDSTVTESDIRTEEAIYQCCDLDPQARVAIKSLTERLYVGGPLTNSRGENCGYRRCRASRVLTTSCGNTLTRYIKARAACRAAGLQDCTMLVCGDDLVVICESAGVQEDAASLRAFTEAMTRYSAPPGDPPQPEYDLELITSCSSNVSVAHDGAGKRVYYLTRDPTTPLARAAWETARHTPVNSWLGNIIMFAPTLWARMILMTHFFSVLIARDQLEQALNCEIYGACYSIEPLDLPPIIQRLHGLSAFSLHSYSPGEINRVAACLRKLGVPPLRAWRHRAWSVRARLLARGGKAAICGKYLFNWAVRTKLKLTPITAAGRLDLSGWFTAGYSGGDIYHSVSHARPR

| Compound | IC50 [1] [nM] | EC50 [2] [nM] | IC50 [3] [nM] | EC50 [4] [nM] | IC50 ([1]; HCV polymerase 1b, read-out: IC50 1b) [nM] | IC50 ([3]; HCV polymerase 1a, read-out: IC50 1a) [nM] |
| --- | --- | --- | --- | --- | --- | --- |
| COc1c(-c2nc3cc(NS(C)(=O)=O)ccc3[nH]2)cc(N2CCC(=O)NC2=O)cc1C(C)(C)C [IA-L0-2.1, N-(2-(3-tert-butyl-5-(2,4-dioxotetrahydropyrimidin-1(2H)-yl)-2-methoxyphenyl)-1H-benzo[d]imidazol-5-yl)methanesulfonamide] | 100 to 1000 | > 1000 | 100 to 1000 | > 1000 | – | – |
| COc1c(-c2nc3ccc(NS(C)(=O)=O)cc3s2)cc(N2CCC(=O)NC2=O)cc1C(C)(C)C [IA-L0-2.2, N-(2-(3-tert-butyl-5-(2,4-dioxotetrahydropyrimidin-1(2H)-yl)-2-methoxyphenyl)benzo[d]thiazol-6-yl)methanesulfonamide] | 10 to 100 | 10 to 100 | 10 to 100 | 100 to 1000 | – | – |
| COc1c(-c2nc3ccccc3s2)cc(N2CCC(=O)NC2=O)cc1C(C)(C)C [IA-L0-2.3, 1-(3-(benzo[d]thiazol-2-yl)-5-tert-butyl-4-methoxyphenyl)dihydro pyrimidine-2,4(1H,3H)-dione] | 100 to 1000 | 100 to 1000 | 100 to 1000 | 100 to 1000 | – | – |
| COc1c(-c2nc3cc(NS(C)(=O)=O)ccc3s2)cc(N2CCC(=O)NC2=O)cc1C(C)(C)C [IA-L0-2.4, N-(2-(3-tert-butyl-5-(2,4-dioxotetrahydropyrimidin-1(2H)-yl)-2-methoxyphenyl)benzo[d]thiazol-5-yl)methanesulfonamide] | 10 to 100 | 100 to 1000 | 10 to 100 | > 1000 | – | – |
| COc1c(-c2nc3ccc(NS(C)(=O)=O)cc3o2)cc(N2CCC(=O)NC2=O)cc1C(C)(C)C [IA-L0-2.5, N-(2-(3-tert-butyl-5-(2,4-dioxotetrahydropyrimidin-1(2H)-yl)-2-methoxyphenyl)benzo[d]oxazol-6-yl)methanesulfonamide] | 100 to 1000 | > 1000 | 100 to 1000 | > 1000 | – | – |
| COc1c(-c2nc3ccc([N+](=O)[O-])cc3o2)cc(N2CCC(=O)NC2=O)cc1C(C)(C)C [IA-L0-2.6, 1-(3-tert-butyl-4-methoxy-5-(6-nitrobenzo[d]oxazol-2-yl)phenyl) dihydropyrimidine-2,4(1H,3H)-dione] | 100 to 1000 | > 1000 | 100 to 1000 | > 1000 | – | – |
| COc1c(-c2nc3cc([N+](=O)[O-])ccc3o2)cc(N2CCC(=O)NC2=O)cc1C(C)(C)C [IA-L0-2.7, 1-(3-tert-butyl-4-methoxy-5-(5-nitrobenzo[d]oxazol-2-yl)phenyl) dihydropyrimidine-2,4(1H,3H)-dione] | 100 to 1000 | 100 to 1000 | 100 to 1000 | > 1000 | – | – |
| COc1c(-c2nc3cc(NS(C)(=O)=O)ccc3o2)cc(N2CCC(=O)NC2=O)cc1C(C)(C)C [IA-L0-2.8, N-(2-(3-tert-butyl-5-(2,4-dioxotetrahydropyrimidin-1(2H)-yl)-2-methoxyphenyl)benzo[d]oxazol-5-yl)methanesulfonamide] | 10 to 100 | 10 to 100 | 10 to 100 | 100 to 1000 | – | – |
| COc1c(-c2ccc3cc(NS(C)(=O)=O)ccc3c2)cc(N2CCC(=O)NC2=O)cc1C(C)(C)C [IA-L0-2.9, N-(6-(3-tert-butyl-5-(2,4-dioxotetrahydropyrimidin-1(2H)-yl)-2-methoxyphenyl)naphthalen-2-yl)methanesulfonamide] | < 10 | < 10 | < 10 | < 10 | – | – |
| COc1c(-c2ccc3ccccc3c2)cc(-n2ccc(=O)[nH]c2=O)cc1C(C)(C)C [IB-L0-2.1, 1-(3-tert-butyl-4-methoxy-5-(naphthalen-2-yl)phenyl)pyrimidine-2,4(1H,3H)-dione] | 100 to 1000 | 100 to 1000 | 100 to 1000 | > 1000 | – | – |
| COc1ccc2cc(-c3cc(-n4ccc(=O)[nH]c4=O)cc(C(C)(C)C)c3OC)ccc2c1 [IB-L0-2.2, 1-(3-tert-butyl-4-methoxy-5-(6-methoxynaphthalen-2-yl)phenyl)pyrimidine-2,4(1H,3H)-dione] | 100 to 1000 | > 1000 | 100 to 1000 | > 1000 | – | – |
| COc1c(-c2ccc3cc(NS(C)(=O)=O)ccc3c2)cc(-n2ccc(=O)[nH]c2=O)cc1C(C)(C)C [IB-L0-2.3, N-(6-(3-tert-butyl-5-(2,4-dioxo-3,4-dihydropyrimidin-1(2H)-yl)-2-methoxyphenyl)naphthalen-2-yl)methanesulfonamide] | < 10 | < 10 | < 10 | < 10 | – | – |
| COc1c(-c2ccc3c(c2)CC/C3=N\NS(C)(=O)=O)cc(-n2ccc(=O)[nH]c2=O)cc1C(C)(C)C [IB-L0-2.4, (E)-N′-(5-(3-tert-butyl-5-(2,4-dioxo-3,4-dihydropyrimidin-1(2H)-yl)-2-methoxyphenyl)-2,3-dihydro-1H-inden-1-ylidene)methanesulfonohydrazide] | < 10 | < 10 | < 10 | – | – | – |
| COc1c(-c2ccc3nc(NS(C)(=O)=O)ccc3c2)cc(-n2ccc(=O)[nH]c2=O)cc1C(C)(C)C [IB-L0-2.5, N-(6-(3-tert-butyl-5-(2,4-dioxo-3,4-dihydropyrimidin-1(2H)-yl)-2-methoxyphenyl)quinolin-2-yl)methanesulfonamide] | 10 to 100 | < 10 | 10 to 100 | 10 to 100 | – | – |
| COc1c(-c2nc3cc(NS(C)(=O)=O)ccc3o2)cc(-n2ccc(=O)[nH]c2=O)cc1C(C)(C)C [IB-L0-2.6, N-(2-(3-tert-butyl-5-(2,4-dioxo-3,4-dihydropyrimidin-1(2H)-yl)-2-methoxyphenyl)benzo[d]oxazol-5-yl)methanesulfonamide] | 10 to 100 | 10 to 100 | 10 to 100 | 100 to 1000 | – | – |
| CC(C)(C)c1cc(-c2ccc3cc(NS(C)(=O)=O)ccc3c2)cc(-n2ccc(=O)[nH]c2=O)c1 [IB-L0-2.8, N-(6-(3-tert-butyl-5-(2,4-dioxo-3,4-dihydropyrimidin-1(2H)-yl)phenyl)naphthalen-2-yl)methanesulfonamide] | 10 to 100 | 10 to 100 | 10 to 100 | – | – | – |
| COc1c(-c2ccc3c(c2)CC[C@]3(F)CNS(C)(=O)=O)cc(-n2ccc(=O)[nH]c2=O)cc1C(C)(C)C [IB-L0-2.10, (R)-N-((5-(3-tert-butyl-5-(2,4-dioxo-3,4-dihydropyrimidin-1 (2H)-yl)-2-methoxyphenyl)-1-fluoro-2,3-dihydro-1H-inden-1-yl)methyl)methanesulfonamide] | 10 to 100 | < 10 | < 10 | < 10 | – | – |
| COc1c(N2CCc3cc(NS(C)(=O)=O)ccc3C2)cc(-n2ccc(=O)[nH]c2=O)cc1C(C)(C)C [IB-L0-2.19, N-(2-(3-tert-butyl-5-(2,4-dioxo-3,4-dihydropyrimidin-1(2H)-yl)-2-methoxyphenyl)-1,2,3,4-tetrahydroisoquinolin-6-yl)methanesulfonamide] | 10 to 100 | 10 to 100 | < 10 | 10 to 100 | – | – |
| COc1c(-c2ccc3nc(NC(C)=O)sc3c2)cc(-n2ccc(=O)[nH]c2=O)cc1C(C)(C)C [IB-L0-2.49, N-(6-(3-tert-butyl-5-(2,4-dioxo-3,4-dihydropyrimidin-1(2H)-yl)-2-methoxyphenyl)benzo[d]thiazol-2-yl)acetamide] | > 1000 | – | > 1000 | – | – | – |
| N,N′-(6,6′-(5-(2,4-dioxo-3,4-dihydropyrimidin-1(2H)-yl)-2-methoxy-1,3-phenylene) bis(naphthalene-6,2-diyl))dimethanesulfonamide [IB-L0-2.76] | – | – | – | – | > 1000 | 100 to 1000 |
